From PubChem BioAssay (NCI)
Several values for one entry are separate records, joined by “and”; a condition that tells them apart may be missing. Equal entries are not always repeated.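 Assay format: 96-well plates, 48-hour exposure. TGI is the concentration that stops growth completely.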

Experiments:
Assay in all cases: inhibition of tumour cell growth, NCI panel, 48 h
NCI-H23 lung = test system: NCI-H23 lung
EKVX NSCLC = test system: EKVX NSCLC
BT-549 breast = test system: BT-549 breast
HOP-62 NSCLC = test system: HOP-62 NSCLC
SF-295 CNS = test system: SF-295 CNS
NCI/ADR-RES ovarian = test system: NCI/ADR-RES ovarian
SK-MEL-28 melanoma = test system: SK-MEL-28 melanoma
LOX IMVI melanoma = test system: LOX IMVI melanoma
HL-60(TB) leukemia = test system: HL-60(TB) leukemia
SR leukemia = test system: SR leukemia

Row | Compound | TGI (NCI-H23 lung) | TGI (EKVX NSCLC) | TGI (BT-549 breast) [µM] | TGI (HOP-62 NSCLC) | TGI (SF-295 CNS) | TGI (NCI/ADR-RES ovarian) [µM] | TGI (SK-MEL-28 melanoma) | TGI (LOX IMVI melanoma) [µM] | TGI (HL-60(TB) leukemia) | TGI (SR leukemia) [µM]
1 | CCCCCCCCCCCCCCCCOCC(CC(F)(F)P(=O)(O)O)OC(C)=O (stereo unspecified) | > 50 µM | > 50 µM | > 50 | > 50 µM | > 50 µM | > 50 | > 50 µM | – | – | –
2 | CC1CN=C(c2cccc(OCc3ccc(COc4cccc(C5=NCC(C)N5)c4)cc3)c2)N1 (stereo unspecified) | > 100 µM | > 100 µM | > 100 | > 100 µM | > 100 µM | > 100 | > 100 µM | 62.1 | > 100 µM | –
3 | Brc1ccc(N2C[N+](c3ccc(Br)cc3)=NC(c3ccccc3)=N2)cc1 | 31.7 µM and > 100 µM | 31.8 µM and > 100 µM | – | 31.2 µM and > 100 µM | 29.1 µM and > 100 µM | – | 39.2 µM and > 100 µM | – | 35.2 µM and > 100 µM | –
4 | CCCCc1ccc2[n+](c1)C(C(=O)OCC)=PC2 (stereo unspecified) | > 100 µM | > 100 µM | > 100 | > 100 µM | > 100 µM | – | > 100 µM | – | > 100 µM | > 100
5 | O=c1c(Cc2ccc(Cl)cc2)nnc2sc(-c3ccc([N+](=O)[O-])cc3)nn12 | 54.5 µM | 64.4 µM | 55.6 | > 100 µM | > 100 µM | > 100 | – | > 100 | 49.6 µM | 60.4
6 | O=C1c2ccccc2NC2C(O)c3ccccc3N12 (stereo unspecified) | 84.3 µM | > 100 µM | > 100 | > 100 µM | > 100 µM | > 100 | – | > 100 | – | > 100
7 | O=C(c1cccs1)N(C(=S)N1CCN(c2ccccc2)CC1)c1ccccc1 | > 100 µM | – | – | > 100 µM | > 100 µM | – | > 100 µM | > 100 | > 100 µM | > 100
8 | Oc1c2cccc1Cc1cccc3c1OCCOCCOCCOCCOc1c(cccc1Cc1cccc(c1O)C3)C2 | > 100 µM | > 100 µM | > 100 | > 100 µM | > 100 µM | > 100 | > 100 µM | > 100 | – | > 100
9 | O=C1/C(=C/c2cccc(Oc3ccccc3)c2)N=C(c2ccccc2)N1c1nc2ccc(Sc3ccccc3)cc2[nH]1 | > 100 µM | > 100 µM | 55 | > 100 µM | 53.7 µM | 50.4 | > 100 µM | > 100 | 49.9 µM | –
10 | O=C1CSC2(CC(/C=C/C=C/c3ccccc3)=NN2c2cccc(S(=O)(=O)O)c2)N1c1nc2ccccc2s1 (stereo unspecified) | > 100 µM | > 100 µM | > 100 | – | – | > 100 | > 100 µM | 42.2 | > 100 µM | 60.1
11 | Oc1ccc(-c2c3c(nc4c2CCc2ccc(Br)cc2-4)-c2cc(Br)ccc2CC3)cc1 | 38.7 µM | 46.1 µM | 43.1 | 33.6 µM | 31.7 µM | 46 | 38.9 µM | – | – | –
12 | COc1cc(C2SCC(=O)N2NC(=O)c2ccc(NC(C)=O)cc2)cc(OC)c1OC (stereo unspecified) | > 100 µM | > 100 µM | > 100 | > 100 µM | > 100 µM | > 100 | > 100 µM | – | > 100 µM | –
13 | COc1ccc(C(=O)Cc2cc(OC)ccc2OC)cc1 | > 100 µM | > 100 µM | – | > 100 µM | > 100 µM | – | – | > 100 | > 100 µM | > 100
14 | O=C(Cn1c2ccc(Br)cc2c2nc3ccccc3nc21)NC1CCCCC1 | > 100 µM | – | > 100 | > 100 µM | > 100 µM | > 100 | > 100 µM | > 100 | – | –
15 | O=CNc1cccc2c3c([nH]c12)CCCCCC3 | > 100 µM | > 100 µM | – | > 100 µM | > 100 µM | > 100 | > 100 µM | > 100 | > 100 µM | –
16 | Cc1cc(S(=O)(=O)Nc2n[nH]c(Nc3ccccc3)n2)c(S)cc1Cl | > 10 µM | > 10 µM | > 10 | > 10 µM | > 10 µM | > 10 | > 10 µM | > 10 | > 10 µM | –
17 | N#Cc1c(N)c(-c2ccc(Cl)cc2)c(F)c2ccccc12 | > 100 µM | > 100 µM | > 100 | > 100 µM | > 100 µM | > 100 | > 100 µM | > 100 | – | –
18 | O=C1NC(=O)/C(=C\c2ccncc2)N1 | > 100 µM | > 100 µM | > 100 | > 100 µM | > 100 µM | > 100 | > 100 µM | > 100 | – | –
19 | COc1ccccc1C(=O)c1c(N2CCCCC2)c(=O)c1=O | > 100 µM | > 100 µM | > 100 | > 100 µM | > 100 µM | > 100 | > 100 µM | > 100 | > 100 µM | –
20 | O=C1c2cc3c(cc2CC12Cc1cc4c(cc1C2)CCC4)CCC3 | > 100 µM | > 100 µM | – | > 100 µM | > 100 µM | > 100 | > 100 µM | > 100 | > 100 µM | > 100
21 | O=C1/C(=C/c2ccccc2S)N=C(c2ccccc2)N1c1ccc2c(c1)Sc1cc(N3C(=O)/C(=C/c4ccccc4S)N=C3c3ccccc3)ccc1N2 | – | 41.6 µM | 73.5 | 72.7 µM | 39.9 µM | > 100 | 44.5 µM | 48.1 | – | 40.4
22 | Cc1ncc([N+](=O)[O-])n1CCN=[N+]=[N-] | > 100 µM | > 100 µM | > 100 | > 100 µM | > 100 µM | > 100 | > 100 µM | – | – | > 100
23 | Cc1ccc(S(=O)(=O)C(C#N)c2nc3ccccc3nc2-n2cccn2)cc1 (stereo unspecified) | > 100 µM | > 100 µM | – | – | > 100 µM | – | > 100 µM | – | > 100 µM | –
24 | CC(=O)O[C@]12CCCCCCC1C1(O)C(O)CCC[C@H]12 (stereo partly specified) | > 100 µM | > 100 µM | – | > 100 µM | > 100 µM | – | > 100 µM | > 100 | – | > 100
25 | C=C1C(=O)O[C@H]2C1[C@H](OC(=O)/C(C)=C\COC(C)=O)C[C@]1(CO1)[C@@H]1[C@H](O)[C@H]3O[C@@]3(C)[C@@H]12 (stereo partly specified) | 29.7 µM | 57.3 µM | – | > 100 µM | > 100 µM | 54.7 | 31.7 µM | 37.2 | > 57.7 µM | –
